# Source: US5262411A, “Isocephem derivatives, and antimicrobial composition containing the derivatives” (Otsuka Pharmaceutical Co., Ltd., priority 1989, dated 1993)
# Like-named read-outs stand apart in the source and are kept apart here.
# Assays:
# Assay type in all cases: cell-based
# S. aureaus FDA-209P = experiment: MIC against S. aureaus FDA-209P by the plate diluted method; details: Staphylococcus aureus, FDA209P
# Description: (§1) In order to investigate the in vitro activity of the test compounds against various bacteria, the minimal inhibitory concentration (MIC) values were determined by the plate diluted method (See CHEMOTHERAPY, 22, 1126-1128, 1974.)
# (§2) Each strain was adjusted to 1×10^6 cells/ml (O.D. 600 mμ, 0.07 to 0.16).
# E. coli NIHJ JC-2 = experiment: MIC against E. coli NIHJ JC-2 by the plate diluted method; details: Escherichia coli, NIHJJC2
# Description: as §1, §2
# K. pneumoniae NCTC-9632 = experiment: MIC against K. pneumoniae NCTC-9632 by the plate diluted method; details: Klebsiella pneumoniae, NCTC9632
# Description: as §1, §2
# M. moganii IIDkono = experiment: MIC against M. moganii IIDkono by the plate diluted method
# Description: as §1, §2
# S. marcescens IFO 12648 = experiment: MIC against S. marcescens IFO 12648 by the plate diluted method; details: Serratia marcescens, IFO12648
# Description: as §1, §2
# A. calcoaceticus Ac-54 = experiment: MIC against A. calcoaceticus Ac-54 by the plate diluted method; details: Acinetobacter calcoaceticus, AC54
# Description: as §1, §2
# P. aeruginosa ATCC-10145 = experiment: MIC against P. aeruginosa ATCC-10145 by the plate diluted method; details: Pseudomonas aeruginosa, ATCC10145
# Description: as §1, §2
# P. aeruginosa E-2 = experiment: MIC against P. aeruginosa E-2 by the plate diluted method; details: Pseudomonas aeruginosa, E2
# Description: as §1, §2
# E. coli No. 29 = experiment: MIC against E. coli No. 29 by the plate diluted method; details: Escherichia coli, 1×10^6 cells/ml
# Description: as §1, §2
# [1] = S. aureaus FDA-209P, 1×10^6 cells/ml, read-out: MIC
# [2] = E. coli NIHJ JC-2, 1×10^6 cells/ml, read-out: MIC
# [3] = K. pneumoniae NCTC-9632, 1×10^6 cells/ml, read-out: MIC
# [4] = S. marcescens IFO 12648, 1×10^6 cells/ml, read-out: MIC
# [5] = A. calcoaceticus Ac-54, 1×10^6 cells/ml, read-out: MIC
# [6] = P. aeruginosa ATCC-10145, 1×10^6 cells/ml, read-out: MIC
# [7] = P. aeruginosa E-2, 1×10^6 cells/ml, read-out: MIC
# [8] = M. moganii IIDkono, 1×10^6 cells/ml, read-out: MIC
SMILES,MIC (S. aureaus FDA-209P; [1]) [µg/mL],MIC (E. coli NIHJ JC-2; [2]) [µg/mL],MIC (K. pneumoniae NCTC-9632; [3]) [µg/mL],MIC (M. moganii IIDkono) [µg/mL],MIC (S. marcescens IFO 12648; [4]) [µg/mL],MIC (A. calcoaceticus Ac-54; [5]) [µg/mL],MIC (P. aeruginosa ATCC-10145; [6]) [µg/mL],MIC (P. aeruginosa E-2; [7]) [µg/mL],MIC (E. coli NIHJ JC-2) [µg/mL],MIC (M. moganii IIDkono; [8]) [µg/mL],MIC (S. aureaus FDA-209P) [µg/mL],MIC (K. pneumoniae NCTC-9632) [µg/mL],MIC (S. marcescens IFO 12648) [µg/mL],MIC (A. calcoaceticus Ac-54) [µg/mL],MIC (P. aeruginosa ATCC-10145) [µg/mL],MIC (P. aeruginosa E-2) [µg/mL],MIC (E. coli No. 29) [µg/mL]
"Nc1nc(/C(=N/OCc2cc(=O)c(O)cn2O)C(=O)N[C@@H]2C(=O)N3C(C(=O)O)=C(CSc4snc(O)c4C(=O)O)CS[C@H]23)ns1 [No. 23, (6R,7R)-7-[(Z)-2-(5-amino-1,2,4-thiadiazol-3-yl)-2-(1,5-dihydroxy-4-pyridone-2-ylmethoxyimino)acetamide]-3-(4-carboxy-3-hydroxyiso-thiazol-5-ylthiomethyl)-3-cephem-4-carboxylic acid]",100,0.1,0.024,0.05,0.024,0.1,0.1,0.1,,,,,,,,,
"Nc1nc(/C(=N/OCc2cc(=O)c(O)cn2O)C(=O)N[C@@H]2C(=O)N3C(C(=O)[O-])=C(CSc4cc[n+](CC(=O)O)cc4)CS[C@H]23)ns1 [No. 25, (6R,7R)-7-[(Z)-2-(5-amino-1,2,4-thiadiazol-3-yl)-2-(1,5-dihydroxy-4-pyridone-2-ylmethoxyimino)acetamide]-3-(1-carboxymethylpyridinium-4-ylthiomethyl)-3-cephem-4-carboxylate]",6.25,,0.024,0.05,0.024,0.39,0.1,0.2,0.2,,,,,,,,
"Cc1nc(SCC2=C(C(=O)O)N3C(=O)[C@@H](NC(=O)/C(=N\OCc4cc(=O)c(O)cn4O)c4nsc(N)n4)[C@H]3CS2)sc1CC(=O)O [No. 18, (6S,7S)-7-[(Z)-2-(5-amino-1,2,4-thiadiazol-3-yl)-2-(1,5-dihydroxy-4-pyridone-2-ylmethoxyimino)acetamide]-3-(5-carboxymethyl-4-methylthiazol-2-ylthiomethyl)isocephem-4-carboxylic acid]",100,0.1,0.024,0.05,0.024,0.1,0.1,0.1,,,,,,,,,
"Nc1nc(/C(=N/OCc2cc(=O)c(O)cn2O)C(=O)N[C@@H]2C(=O)N3C(C(=O)O)=C(CSc4nnnn4CC(=O)O)SC[C@H]23)ns1 [No. 20, (6S,7S)-7-[(Z)-2-(5-amino-1,2,4-thiadiazol-3-yl)-2-(1,5-dihydroxy-4-pyridone-2-ylmethoxyimino)acetamide]-3-(1-carboxymethyl-1H-tetrazol-5-ylthiomethyl)-isocephem-4-carboxylic acid]",100,0.05,0.012,,0.012,0.05,0.05,0.05,,0.024,,,,,,,
"Nc1nc(/C(=N/OCc2cc(=O)c(O)cn2O)C(=O)N[C@@H]2C(=O)N3C(C(=O)O)=C(CSc4snc(O)c4C(=O)O)SC[C@H]23)ns1 [No. 22, (6S,7S)-7-[(Z)-2-(5-amino-1,2,4-thiadiazol-3-yl)-2-(1,5-dihydroxy-4-pyridone-2-ylmethoxyimino)acetamide]-3-(4-carboxy-3-hydroxyisothiazol-5-ylthiomethyl) isocephem-4-carboxylic acid]",100,0.05,0.012,0.05,0.012,0.1,0.1,0.2,,,,,,,,,
"CC(C)(O/N=C(\C(=O)N[C@@H]1C(=O)N2C(C(=O)[O-])=C(C[n+]3ccccc3)CS[C@H]12)c1csc(N)n1)C(=O)O [CAZ, Ceftazizime, reference compound]",,,,0.05,,,,,0.2,,3.13,0.05,0.024,1.56,0.78,1.56,
"Cc1nc(SCC2=C(C(=O)O)N3C(=O)[C@@H](NC(=O)/C(=N\OCc4cc(=O)c(O)cn4O)c4nsc(N)n4)[C@H]3SC2)sc1CC(=O)O [No. 19, (6R,7R)-7-[(Z)-2-(5-amino-1,2,4-thiadiazol-3-yl)-2-(1,5-dihydroxy-4-pyridone-2-ylmethoxyimino)acetamide]-3-(5-carboxymethyl-4-methylthiazol-2-ylthiomethyl)-3-cephem-4-carboxylic acid]",100,0.1,0.024,0.05,0.024,0.05,0.05,0.1,,,,,,,,,
CC(C)(O/N=C(\C(=O)N[C@@H]1C(=O)N2C(C(=O)[O-])=C(CSc3cc[n+](CC(=O)NNC(=O)c4ccc(O)c(O)c4)cc3)SC[C@H]12)c1csc(N)n1)C(=O)O [No. 4],,,≤ 0.006,,0.024,0.2,0.1,0.1,,0.024,3.13,,,,,,0.012
CC(C)(O/N=C(\C(=O)N[C@@H]1C(=O)N2C(C(=O)[O-])=C(CSc3cc[n+](Cc4cc(=O)c(O)c[nH]4)cc3)CS[C@H]12)c1csc(N)n1)C(=O)O [No. 14],6.25,,0.012,0.05,0.024,0.39,0.2,0.1,,,,,,,,,0.05
"Cc1nnc(SCC2=C(C(=O)O)N3C(=O)[C@@H](NC(=O)/C(=N\OCc4cc(=O)c(O)cn4O)c4csc(N)n4)[C@H]3CS2)s1 [No. 1, (6S,7S)-7-[(Z)-2-(2-Aminothiazol-4-yl)-2-(1,5-dihydroxy-4-pyridone-2-ylmethoxyimino)acetamide]-3-(2-methyl-1,3,4-thiadiazol-5-yl)thiomethyl-isocephem-4-carboxylic acid]",25,,0.012,0.05,0.024,0.1,0.1,0.2,,,,,,,,,0.024
"Nc1nc(/C(=N/OCc2cc(=O)c(O)cn2O)C(=O)N[C@@H]2C(=O)N3C(C(=O)O)=C(CSc4nnnn4CC(=O)O)CS[C@H]23)ns1 [No. 21, (6R,7R)-7-[(Z)-2-(5-amino-1,2,4-thiadiazol-3-yl)-2-(1,5-dihydroxy-4-pyridone-2-ylmethoxyimino)acetamide]-3-(1-carboxymethyl-1H-tetrazole-5-ylthiomethyl)-3-cephem-4-carboxylic acid]",100,0.1,0.012,,0.012,0.05,0.1,0.1,,0.024,,,,,,,
"Cc1nc(SCC2=C(C(=O)O)N3C(=O)[C@@H](NC(=O)/C(=N\OCc4cc(=O)c(O)cn4O)c4csc(N)n4)[C@H]3CS2)sc1CC(=O)O [No. 13, (6S,7S)-7-[(Z)-2-(2-aminothiazol-4-yl)-2-(1,5-dihydroxy-4-pyridone-2-ylmethoxyimino)acetamide]-3-[(5-carboxymethyl-4-methyl-thiazol-2-yl)thiomethyl]isocephem-4-carboxylic acid]",100,,≤ 0.006,,0.012,0.012,0.05,0.05,,0.024,,,,,,,0.012
"Nc1nc(/C(=N/OCc2cc(=O)c(O)cn2O)C(=O)N[C@@H]2C(=O)N3C(C(=O)O)=C(CSc4nnnn4CCO)SC[C@H]23)cs1 [No. 11, (6S,7S)-7-[(Z)-2-(2-aminothiazol-4-yl)-2-(1,5-dihydroxy-4-pyridone-2-ylmethoxyimino)acetamide]-3-[1-(2-hydroxyethyl)-1H-tetrazole-5-ylthiomethyl]isocephem-4-carboxylic acid]",50,,0.012,,0.012,0.2,0.05,0.05,,0.024,,,,,,,0.05
